Measured values as given in PubChem BioAssay (NCI).
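A five-concentration, 48-hour dose response in 96-well plates underlies each endpoint, interpolated linearly between surrounding concentrations. GI50: concentration for 50% inhibition of growth. TGI: total growth inhibition.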

Columns and labels:
Assay in all cases: NCI-60 cell line screen, 48 h
[1] = test system: NCI-H226 lung
[2] = test system: NCI-H23 lung
[3] = test system: NCI-H460 lung
[4] = test system: NCI-H522 lung
[5] = test system: OVCAR-3 ovarian
[6] = test system: OVCAR-4 ovarian
[7] = test system: OVCAR-5 ovarian
[8] = test system: OVCAR-8 ovarian
[9] = test system: PC-3 prostate
[10] = test system: RPMI-8226 leukemia
[11] = test system: RXF 393 renal
[12] = test system: SF-268 CNS
[13] = test system: SF-295 CNS
[14] = test system: SF-539 CNS
[15] = test system: SK-MEL-2 melanoma
[16] = test system: SK-MEL-28 melanoma
[17] = test system: SK-MEL-5 melanoma
[18] = test system: SK-OV-3 ovarian
[19] = test system: SN12C renal
[20] = test system: SNB-19 CNS
[21] = test system: SNB-75 CNS
[22] = test system: SR leukemia
[23] = test system: T-47D breast
[24] = test system: TK-10 renal
[25] = test system: U251 CNS
[26] = test system: UACC-257 melanoma
[27] = test system: UACC-62 melanoma
[28] = test system: UO-31 renal

C=C1CCC2C3(C)COC(c4ccccc4F)OC3CCC2(C)C1C/C=C1/C(=O)OCC1O (stereo unspecified)
GI50 [1]: 1670 nM | TGI [1]: 3.3 µM | GI50 [2]: 10.8 µM | TGI [2]: 26 µM | GI50 [3]: 3.36 µM | TGI [3]: > 100 µM | GI50 [4]: 1570 nM | TGI [4]: 3.12 µM | GI50 [5]: 1800 nM | TGI [5]: 3.7 µM | GI50 [6]: 2450 nM | TGI [6]: 7.65 µM | GI50 [7]: 2470 nM | TGI [7]: 5.78 µM | GI50 [8]: 1980 nM | TGI [8]: 5.53 µM | GI50 [9]: 3.45 µM | TGI [9]: 14.6 µM | GI50 [10]: 2600 nM | TGI [10]: 7.35 µM | GI50 [11]: 3 µM | TGI [11]: 12.2 µM | GI50 [12]: 3.85 µM | TGI [12]: 16.4 µM | GI50 [13]: 2130 nM | TGI [13]: 5.24 µM | GI50 [14]: 1940 nM | TGI [14]: 3.52 µM | GI50 [15]: 2670 nM | TGI [15]: 7.79 µM | GI50 [16]: 2920 nM | TGI [16]: 7.63 µM | GI50 [17]: 5.67 µM | TGI [17]: 18.2 µM | GI50 [18]: 18.6 µM | TGI [18]: 35.4 µM | GI50 [19]: 1990 nM | TGI [19]: 4.49 µM | GI50 [20]: 11.5 µM | TGI [20]: 26.8 µM | GI50 [21]: 2820 nM | TGI [21]: 12.8 µM | GI50 [22]: 2500 nM | TGI [22]: 19.9 µM | GI50 [23]: 3.76 µM | TGI [23]: 16.9 µM | GI50 [24]: 8.18 µM | TGI [24]: 22.2 µM | GI50 [25]: 1960 nM | TGI [25]: 3.97 µM | GI50 [26]: 2360 nM | TGI [26]: 13.2 µM | GI50 [27]: 3.17 µM | TGI [27]: 12.1 µM | GI50 [28]: 1970 nM | TGI [28]: 5.54 µM
